Bridge positions count the residues as written; N and C are the ends.
Assays:
Streptococcus pneumoniae = conditions: cited from earlier work
Excerpt: Among the 23 AMPs we tested, only defensin 1 was previously found to be effective against the Gram-positive pathogen Streptococcus pneumoniae. It is unclear whether the eﬃcacy of defensin 1 indeed lies in the structure of the peptide and whether other AMPs with different structures would also show activity against M. catarrhalis. We therefore also investigated L. sericata sarcotoxin 1 C, which has a linear α-helical structure without disulfide bridges.

[1] = test system: commensal species (E. faecalis and E. coli); conditions: previous study; cited from earlier work
Excerpt: We furthermore tested the effect of defensin 1 and sarcotoxin 1 C on the commensals E. faecalis and E. coli. Selectivity of AMPs may provide an important therapeutic advantage over broad-spectrum antibiotics because AMPs targeting pathogens but not commensals would avoid the common side effects of antibiotic therapy. […] Sarcotoxin 1 C was previously shown to inhibit 90% of clinical multidrug-resistant isolates of Ent ...

macrophages = conditions: cited from earlier work
Excerpt: Defensin 1 limited the expressio ...

[2] = test system: BDMs infected with M. catarrhalis; test: qRT-PCR of cytokine mRNA in infected BDMs; assay type: cell-based, human; conditions: defensin 1 12.5 µM given 1 or 5 h after infection, MOI 0.5 or 1; collected 16 h post-infection
Method: BDMs were infected with M. catarrhalis as described above and the cells and supernatant were collected 16 h post-infection. Total RNA was isolated by phenol-chloroform extraction followed by reverse transcription using the High-Capacity RNA-to-cDNA kit (Thermo Fisher Scientific, Waltham, MA, USA). Quantitative real-time PCR (qRT-PCR) was performed with the following specific primer pairs to measure the expression of IL-1β (forward primer 5′-AGCTCGCCAGTGAAATGATGG-3′ and reverse primer 5′-CAGGTCCTGGAAGGAGCACTTC-3′), IL-8 (forward primer 5′-ACTGAGAGTGATTGAGAGTGGAC-3′ and reverse primer 5′-AACCCTCTGCACCCAGTTTTC-3′), and RPS18 (forward primer 5′-GCGGCGGAAAATAGCCTTTG-3′ and reverse primer 5′-GATCACACGTCCACCTCATC-3′).

M. catarrhalis = assay type: cell-based, Moraxella catarrhalis
Method: Colonies of M. catarrhalis were grown on sheep blood agar plates for 12 h at 37°C and 5% CO2 before transfer to brain heart infusion (BHI) medium (Carl Roth, Karlsruhe, Germany) at an initial concentration of 1.6 × 10^7 cells/ml (OD600 = 0.08) as determined using an Ultraspec 10 cell densitometer (Amersham BioSciences, Little Chalfont, UK). Bacteria were cultivated in a shaking incubator at 37°C until the concentration reached 1.2 × 10^8 cells/ml (OD600 = 0.6) and then diluted to 2 × 10^6 cells/ml (OD600 = 0.011). To establish the optimal concentration ranges for AMP activity, defensin 1 was prepared as a two-fold dilution series from 12.5 µM to 1.56 µM and was added to the bacterial cultures, which were incubated as above for a further 16 h. Untreated cultures were used as controls. The OD600 was measured automatically at 30-min intervals using an Infinite M200 Pro plate reader (Tecan Life Sciences, Männedorf, Switzerland). […] They were cultivated for a further 15 h at 37°C and 5% CO2 in serial dilution before manual counting of the colonies on each plate.
Table S1. Detailed characterization of tested AMPs. M.c. were grown to an Optical Density (OD) 600nm of 0.6 in Brain Heart Infusion (BHI) Medium.
Upon dilution to OD600nm= 0.01, M.c. were incubated with declining amounts of indicated AMPs (25 μM to 0.048 μM at halving intervals) at 37°C with 5% CO2.
OD600nm was measured at 30 min intervals to establish the minimal inhibitory concentration (MIC). pI = isoelectric point, MW = molecular weight in kiloDalton.
MIC AMP name AMP class Organism Amino Acid Sequence pIMWPurity Retention time [min] modification
0.195 µM Cecropin A α-helical Hyalophora cecropia […] 10.75 4.00 91.06 7.30 n-term. amidation
0.39 µM Sarcotoxin IA α-helical Sarcophaga peregrina […] 11.07 4.16 91.37 9.37 n-term. amidation
~ 25µM Stomoxyn α-helical Stomoxys calcitrans […] 11.26 4.40 95.34 10.08 n-term. amidation
~ 25µM Spinigerin linear Pseudacanthotermes spiniger […] 11.07 3.00 96.23 12.45 none
>25µM Apidaecin Ia proline-rich Apis mellifera GNNRPVYIPQPRPPHPRI 11.71 2.11 92.98 16.91 none
>25µM Drosocin proline-rich Drosophila melanogaster GKPRPYSPRPTSHPRPIRV 12.01 2.20 92.86 11.65 none
>25µM Pyrrhocoricin proline-rich Pyrrhocoris apterus […] 10.27 2.34 93.17 11.38 none
>25 µM Metalnikowin-1 proline-rich Palomena prasina […] 9.98 1.84 92.85 13.36 none
>25 µM Metalnikowin-2A proline-rich Palomena prasina […] 9.98 1.84 92.39 10.85 none
>25 µM Metchnikowin-1 proline-rich Drosophila melanogaster […] 10.74 3.03 99.06 11.50 none
>25 µM Metchnikowin-2 proline-rich Drolophila melanogaster […] 11.54 3.04 97.16 11.46 none
12.5 µM Defensin 1 disulfide stabilized Tribolium castaneum […] 9.7 4.83 90.53 18.41 none
~ 25 µM Cecropin-like α-helical Lucilia sericata[…] 10.35 6.66 90.28 12.01 none
0.195 µM Cecropin α-helical Galleria mellonella […] 10.21 4.21 93.61 12.33 n-term. amidation
0.37 µM Cecropin α-helical Lucilia sericata […] 10.56 4.26 94.31 10.83 n-term. amidation
12.5 µM Stomoxyn α-helical Lucilia sericata […] 10.73 4.38 90.37 13.35n-term. amidation n-term.
1.56 µM Cecropin(Sarcotoxin) α-helical Eristalis tenax […] 10.56 4.14 90.80 9.76 none

H-VTCDLLSAEAKGVKVNHAACAAHCLLKRKRGGYCNKRRICVCRN-OH (disulfide 3-34, 20-40, 24-42 (inferred)) [Defensin 1]
effective against Streptococcus pneumoniae (Streptococcus pneumoniae): effective | effect against commensal species (E. faecalis, E. coli) [1]: no effect | toxicity toward macrophages (macrophages): nontoxic | IL-1β expression (mRNA, qRT-PCR) [2]: limited the expression | IL-8 expression (mRNA, qRT-PCR) [2]: limited the expression | MIC (minimal inhibitory concentration) (M. catarrhalis; 12 h): 12.5 µM | concentration that completely abolished/inhibited the growth of M. catarrhalis (M. catarrhalis; growth curve in BHI, two-fold dilution series, 37°C, 16 h, OD600 every 30 min): 12.5 µM

— article PMC8043168, “Tribolium castaneum defensin 1 kills Moraxella catarrhalisin an in vitro infection model but does not harm commensal bacteria” (Virulence, 2021)
